Test results taken from article PMC11642016 (International Journal of Molecular Sciences, 2024).
“And” between values parts separate entries of the source, which are not always exact repeats. Equal values may be shown once. Read-outs that look alike come from different tables or passages of the source.

Key:
PANC-1 and A2058 cells = tested on: PANC-1 and A2058 cells; parameters: method as in PMID 35455465; conditions: 24 h exposure time; cited from earlier work
Fadu cells = assay: CellTiter-Glo luminescent cell viability assay, Fadu; conditions: for viability at 2.8 µM: read-out: Cell Viability (% of Control) 2.8 µM, Fadu; for viability at 2.8 µM / viability at 8.3 µM / viability at 25 µM: mean ± SD, n = 2; for viability at 8.3 µM: read-out: Cell Viability (% of Control) 8.3 µM, Fadu; for viability at 25 µM: read-out: Cell Viability (% of Control) 25 µM, Fadu
[1] = tested on: PANC-1, Fadu, A2058 and EBC-1 cell lines; parameters: method as in PMID 35455465; conditions: 10 µM; cited from earlier work
[2] = tested on: non-tumorous primary fibroblast cells; assay: CellTiter-Glo luminescent cell viability assay, primary fibroblasts; conditions: for Primer fibroblast Cell viability (% of controll): dose–response, individual replicates; for IC50: Homo sapiens, Fibroblast
Procedure: Primary fibroblast cultures were prepared from human skin biopsies and maintained in DMEM supplemented with 10% FBS, 1% penicillin-streptomycin, and 1% MEM Non-Essential Amino Acids Solution (Thermo Fisher Scientific). […] All cell lines were cultured in a humidified atmosphere at 37 °C and 5% CO2, passaged twice a week, and the experiments were performed on cells between passage 5 and 15. The cell lines were routinely screened for the absence of mycoplasma infection (DAPI staining).
The effects of the synthesized compounds on cell viability were measured using the CellTiter-Glo® luminescent cell viability assay (Promega, Madison, WI, USA), according to the manufacturer’s instructions. Briefly, cells were seeded onto a flat-bottomed, white 96-well plate (BRANDplates, cat. no.: 781965)), with the following densities: PANC-1: 750 cells/well, Fadu: 2000 cells/well, primary fibroblasts: 2000 cells/well, HEK293T WT: 1000 cells/well, HEK293T CLPP^−/−: 2500 cells/well. After seeding, cells were incubated for a further 48 h before treatment. Cells were treated with the compounds for 72 h. Three concentrations (25.0 µM; 8.3 µM; 2.8 µM) were applied during the initial cell viability screening, while for the determination of dose–response curves, 1.5-fold serially diluted compound concentrations were applied (range: 26 µM–0.7 µM). After treatment, the luminescence signal was recorded using a microplate reader (BioTek Synergy 2 Multi-Mode Reader, BioTek, Winooski, VT, USA).
Data analysis was performed using GraphPad Prism 9.5.0 software (GraphPad Software, San Diego, CA, USA). […] The dose–response curves were generated by four-parameter nonlinear regression, and the IC50 values were determined as the means ± SEM of the best-fit values of 3 independent measurements. The R^2 values were consistently above 0.93, indicating a strong fit of the model to the experimental data (Supplementary S.89). […] Dunnett’s post hoc test was applied to adjust for multiple comparisons, minimizing the likelihood of false positive results. Assumptions for ANOVA, including normality (assessed via QQ plots) and homogeneity of variance (tested using the Brown–Forsythe test), were verified. The following significance levels were applied: * p < 0.05, ** p < 0.01, *** p < 0.001, **** p < 0.0001. […] The tumor selectivity of the compounds was quantitatively characterized by the selectivity index (SI). This parameter was calculated as the ratio of the average best-fit IC50 value for primary fibroblasts and the best-fit IC50 value for the corresponding tumor cells (PANC-1 or Fadu).

[3] = Homo sapiens, FaDu, 72 h, 72 h, first-set screening
[4] = Homo sapiens, FaDu, 72 h, 72 h, second-set screening

With `NCC#Cc1ccc(CN2C(=O)C3=C(CCN(Cc4ccc(-n5cc(-c6ccccc6)nn5)cc4)C3)N3CCN=C23)cc1` [I/B, reference compound] as the molecule, how does the apoptosis induction (PANC-1 and A2058 cells) read?
Its apoptosis induction is “far more efficient in apoptosis induction than ONC201”.

And the “Fadu Cell viability (% of controll)” value (Fadu cells; 1 μM, 72 h, dose–response, individual replicates)?
The value was 116 % of controll.

And the “Fadu Cell viability (% of controll)” value (Fadu cells; 1.5 μM, 72 h, dose–response, individual replicates)?
Its value is 108 % of controll and 114 % of controll.

What about the “Fadu Cell viability (% of controll)” value (Fadu cells; 2.3 μM, 72 h, dose–response, individual replicates) of the same molecule?
Its value is 112 % of controll.

And the “Fadu Cell viability (% of controll)” value (Fadu cells; 3.4 μM, 72 h, dose–response, individual replicates)?
Its value is 112 % of controll.

And the “Fadu Cell viability (% of controll)” value (Fadu cells; 5.1 μM, 72 h, dose–response, individual replicates)?
The value was 107 % of controll.

And the “Fadu Cell viability (% of controll)” value (Fadu cells; 7.7 μM, 72 h, dose–response, individual replicates)?
The value was 100 % of controll and 97 % of controll.

And the “Fadu Cell viability (% of controll)” value (Fadu cells; 17.3 μM, 72 h, dose–response, individual replicates)?
Its value is 0 % of controll.

What about the “Fadu Cell viability (% of controll)” value (Fadu cells; 26 μM, 72 h, dose–response, individual replicates) of the same molecule?
The value was 0 % of controll.

And the viability at 2.8 µM (Fadu cells; [3])?
The viability at 2.8 µM was 112 ± 7%.

What about the viability at 2.8 µM (Fadu cells; [4]) of the same molecule?
Its viability at 2.8 µM is 112 ± 7%.

And the viability at 8.3 µM (Fadu cells; [3])?
The viability at 8.3 µM was 103 ± 6%.

What about the viability at 8.3 µM (Fadu cells; [4]) of the same molecule?
The viability at 8.3 µM was 103 ± 6%.

What about the viability at 25 µM (Fadu cells; [3]) of the same molecule?
The viability at 25 µM was 0%.

And the viability at 25 µM (Fadu cells; [4])?
Its viability at 25 µM is 0%.

What about the viability at 0.7 µM (Fadu cells; Homo sapiens, FaDu, 72 h, read-out: Fadu Cell viability (% of controll), 0.7 μM, 72 h, dose–response, individual replicates) of the same molecule?
Its viability at 0.7 µM is 106%.

And the viability at 1 µM (Fadu cells; Homo sapiens, FaDu, 72 h, read-out: Fadu Cell viability (% of controll), 1 μM, 72 h, dose–response, individual replicates)?
Its viability at 1 µM is 112%.

And the viability at 1.5 µM (Fadu cells; Homo sapiens, FaDu, 72 h, read-out: Fadu Cell viability (% of controll), 1.5 μM, 72 h, dose–response, individual replicates)?
The viability at 1.5 µM was 109%.

And the viability at 2.3 µM (Fadu cells; Homo sapiens, FaDu, 72 h, read-out: Fadu Cell viability (% of controll), 2.3 μM, 72 h, dose–response, individual replicates)?
The viability at 2.3 µM was 110%.

And the viability at 3.4 µM (Fadu cells; Homo sapiens, FaDu, 72 h, read-out: Fadu Cell viability (% of controll), 3.4 μM, 72 h, dose–response, individual replicates)?
Its viability at 3.4 µM is 105%.

What about the viability at 5.1 µM (Fadu cells; Homo sapiens, FaDu, 72 h, read-out: Fadu Cell viability (% of controll), 5.1 μM, 72 h, dose–response, individual replicates) of the same molecule?
Its viability at 5.1 µM is 104%.

And the viability at 7.7 µM (Fadu cells; Homo sapiens, FaDu, 72 h, read-out: Fadu Cell viability (% of controll), 7.7 μM, 72 h, dose–response, individual replicates)?
Its viability at 7.7 µM is 93%.

What about the viability at 17.3 µM (Fadu cells; Homo sapiens, FaDu, 72 h, read-out: Fadu Cell viability (% of controll), 17.3 μM, 72 h, dose–response, individual replicates) of the same molecule?
Its viability at 17.3 µM is 0%.

What about the viability at 26 µM (Fadu cells; Homo sapiens, FaDu, 72 h, read-out: Fadu Cell viability (% of controll), 26 μM, 72 h, dose–response, individual replicates) of the same molecule?
Its viability at 26 µM is 0%.

What about the IC50 (Fadu cells; Homo sapiens, FaDu, 72 h, read-out: IC50 Value ± SEM Fadu, 72 h treatment, best-fit values, n = 3) of the same molecule?
The IC50 was 10.3 ± 0.17 µM.

And the IC50 (Fadu cells; Homo sapiens, FaDu, read-out: Fadu IC50 values, Mean, mean of independently fitted replicate IC50 values (Supplement S.6))?
The IC50 was 10.4 µM.

What about the IC50 (Fadu cells; Homo sapiens, FaDu, read-out: Fadu IC50 values, individual replicates n1-n3, IC50 independently determined for each replicate measurement (Supplement S.6)) of the same molecule?
The IC50 was 11 µM.

What about the “Selectivity Index (SI) Fibroblast/Fadu” value (Fadu cells; ratio of mean best-fit IC50 for primary fibroblasts and best-fit IC50 for Fadu) of the same molecule?
Its value is 1.1.

What about the IC50 (Fadu cells; read-out: Fadu IC50 values, individual replicates n1-n3, IC50 independently determined for each replicate measurement (Supplement S.6)) of the same molecule?
Its IC50 is 9.91 µM and 10.2 µM.

And the “viable cells after treatment in colony formation assays” value [1]?
The value was “no viable cells could be observed”.

What about the “Primer fibroblast Cell viability (% of controll)” value ([2]; 0.7 μM, 72 h) of the same molecule?
Its value is 98 % of controll and 97 % of controll.

What about the “Primer fibroblast Cell viability (% of controll)” value ([2]; 1.5 μM, 72 h) of the same molecule?
The value was 108 % of controll and 98 % of controll.

What about the “Primer fibroblast Cell viability (% of controll)” value ([2]; 2.3 μM, 72 h) of the same molecule?
Its value is 107 % of controll and 98 % of controll.

What about the “Primer fibroblast Cell viability (% of controll)” value ([2]; 3.4 μM, 72 h) of the same molecule?
The value was 109 % of controll and 98 % of controll.

What about the “Primer fibroblast Cell viability (% of controll)” value ([2]; 5.1 μM, 72 h) of the same molecule?
Its value is 110 % of controll and 98 % of controll.

And the “Primer fibroblast Cell viability (% of controll)” value ([2]; 7.7 μM, 72 h)?
Its value is 107 % of controll.

What about the “Primer fibroblast Cell viability (% of controll)” value ([2]; 17.3 μM, 72 h) of the same molecule?
Its value is 0 % of controll.

What about the “Primer fibroblast Cell viability (% of controll)” value ([2]; 26 μM, 72 h) of the same molecule?
Its value is 0 % of controll.

And the IC50 ([2]; 72 h, read-out: IC50 Value ± SEM Primary Fibroblast, 72 h treatment, best-fit values, n = 3)?
Its IC50 is 11 ± 0.65 µM.

And the IC50 ([2]; read-out: Primary fibroblast IC50 values, Mean, mean of independently fitted replicate IC50 values (Supplement S.6), ONC201 value mathematically estimated from inflection point)?
Its IC50 is 11.2 µM.
